This passage reports logP results from the OPERA property sets (Mansouri et al. 2018).

Usually logP stands for a log measure of how a compound divides between an organic and an aqueous phase. A high value points to higher lipophilicity. On to `FC(F)(F)c1nc2ccccc2[nH]1`, for which the logP was 2.67.
`COC(C)=O` had a logP of 0.18.
On to `Cc1nccnc1CC(C)C`, for which the logP was determined as 1.96.
With `Cc1cccc(C(=O)NN)c1`, the logP is 0.74.
Compound `O=C([O-])c1ccccc1O.[Na+]` registered a logP of -1.43.
With `CC(C)Nc1nc(NC(C)C)nc(SC(F)F)n1`, the logP was 4.25.
In turn, `O=C(O)c1ccc(O)c([N+](=O)[O-])c1` had a logP of 1.85.
The result for `c1ccc2c(c1)CCO2` reads 2.14; that for `CC(=O)NCC(=O)N[C@@H](CC(C)C)C(N)=O`, -0.78.
Then `COC(=O)c1cccc(C(=O)O)c1`, with 1.83.
